For one compound, Tm shift results are on record in PubChem BioAssay AID396.

The target in the assay is 14-3-3 protein beta/alpha (Homo sapiens) (UniProt P31946). In words: YWHAB binders by thermal stabilisation, biophysical, DSF, SYPRO orange, recombinant human protein (AID 396). Conditions: at 10 µM, protein 2.3 µM, buffer 10 mM HEPES, pH 7.5, NaCl 150 mM, stronger effect = higher value.
Sequence of 14-3-3 protein beta/alpha (Homo sapiens) (P31946 whole entry, looked up): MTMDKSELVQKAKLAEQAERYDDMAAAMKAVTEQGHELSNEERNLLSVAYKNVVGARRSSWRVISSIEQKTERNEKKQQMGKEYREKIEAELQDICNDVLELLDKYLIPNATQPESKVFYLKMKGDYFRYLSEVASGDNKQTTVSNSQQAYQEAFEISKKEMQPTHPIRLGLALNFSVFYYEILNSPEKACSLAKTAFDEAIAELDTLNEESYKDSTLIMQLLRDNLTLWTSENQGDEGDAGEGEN

`O=c1c(O)c(-c2ccc(O)c(O)c2)oc2cc(O)cc(O)c12`: the Tm shift was 3.13 Celsius.
